Assay results as given in patent US9815819B2, “Complement pathway modulators and uses thereof” (priority 2012, dated 2017).
Where two headings read alike, the source gives them in different places.

Molecular target: Recombinant human factor D (Homo sapiens (Human), UniProt P00746)
Test: Human Complement Factor D Assay: Method 1
Format: biochemical
Conditions: Factor D inhibition, Method 1: 10 nM factor D, 1 hour incubation with compound at room temperature, substrate Z-Lys-thiobenzyl, fluorescence readout
Protocol: Recombinant human factor D (expressed in E. coli and purified using standard methods) at 10 nM concentration is incubated with test compound at various concentrations for 1 hour at room temperature in 0.1 M Hepes buffer, pH 7.5, containing 1 mM MgCl2, 1 M NaCl and 0.05% CHAPS. […] IC50 values are calculated from percentage of inhibition of complement factor D-activity as a function of test compound concentration.

Sequence of Recombinant human factor D (P00746 26-253): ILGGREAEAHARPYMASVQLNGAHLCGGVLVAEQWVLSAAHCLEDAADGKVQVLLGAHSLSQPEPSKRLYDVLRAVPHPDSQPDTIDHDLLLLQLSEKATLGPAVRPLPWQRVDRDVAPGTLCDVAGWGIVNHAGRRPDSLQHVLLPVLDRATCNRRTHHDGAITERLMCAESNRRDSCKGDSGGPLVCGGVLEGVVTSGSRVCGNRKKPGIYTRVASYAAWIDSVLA

| IC50 (read-out: IC50) [µM] | SMILES | IC50 (IC50 (μM)) [µM] |
| --- | --- | --- |
|  | NC(=O)c1nn(CC(=O)N2[C@@H]3C[C@@H]3C[C@H]2C(=O)NC2CCCC(c3ccccc3)C2)c2ccccc12 (single isomer, unassigned) [Example 78] | 2 |
|  | NC(=O)c1nn(CC(=O)N2[C@@H]3C[C@@H]3C[C@H]2C(=O)NC2CCCC(c3ccccc3)C2)c2ccccc12 (single isomer, unassigned) [Example 79] | 0.114 |
|  | NC(=O)c1nn(CC(=O)N2[C@@H]3C[C@@H]3C[C@H]2C(=O)NC2CCCC(c3ccccc3)C2)c2ccccc12 (single isomer, unassigned) [Example 80] | 0.475 |
|  | NC(=O)c1nn(CC(=O)N2[C@@H]3C[C@@H]3C[C@H]2C(=O)NC2CCCC(c3ccccc3)C2)c2ccccc12 (single isomer, unassigned) [Example 81] | 5.65 |
| 0.147 | CC(=O)c1nn(CC(=O)N2[C@@H]3C[C@@H]3C[C@H]2C(=O)N[C@@H]2C[C@H]2c2ccccc2)c2ccncc12 [Example 3, (1R,3S,5R)-2-[2-(3-Acetyl-pyrazolo[4,3-c]pyridin-1-yl)-acetyl]-2-aza-bicyclo[3.1.0] hexane-3-carboxylic acid ((1R,2S)-2-phenyl-cyclopropyl)-amide] |  |
| 0.702 | CC(=O)c1nn(CC(=O)N2[C@@H]3C[C@@H]3C[C@H]2C(=O)N[C@H]2C[C@@H]2c2ccccc2)c2cnccc12 [Example 4, (1R,3S,5R)-2-[2-(3-Acetyl-pyrazolo[3,4-c]pyridin-1-yl)-acetyl]-2-aza-bicyclo[3.1.0] hexane-3-carboxylic acid ((1S,2R)-2-phenyl-cyclopropyl)-amide] |  |
| 0.106 | CC(=O)c1nn(CC(=O)N2[C@@H]3C[C@@H]3C[C@H]2C(=O)N[C@@H]2C[C@H]2c2ccccc2)c2cnccc12 [Example 5, (1R,3S,5R)-2-[2-(3-Acetyl-pyrazolo[3,4-c]pyridin-1-yl)-acetyl]-2-aza-bicyclo[3.1.0] hexane-3-carboxylic acid ((1R,2S)-2-phenyl-cyclopropyl)-amide] |  |
| 0.123 | CC(=O)c1nn(CC(=O)N2[C@@H]3C[C@@H]3C[C@H]2C(=O)N[C@@H]2C[C@H]2c2ccccc2)c2ncccc12 [Example 8, (1R,3S,5R)-2-[2-(3-Acetyl-pyrazolo[3,4-b]pyridin-1-yl)-acetyl]-2-aza-bicyclo[3.1.0]hexane-3-carboxylic acid ((1R,2S)-2-phenyl-yclopropyl)-amide] |  |
| 0.065 | NC(=O)c1nn(CC(=O)N2[C@@H]3C[C@@H]3C[C@H]2C(=O)N[C@@H]2C[C@H]2c2ccccc2)c2cnccc12 [Example 9, 1-{2-Oxo-2-[(1R,3S,5R)-3-((1R,2S)-2-phenyl-cyclopropylcarbamoyl)-2-aza-bicyclo[3.1.0]hex-2-yl]-ethyl}-1H-pyrazolo[3,4-c]pyridine-3-carboxylic acid amide] |  |
| 0.172 | NC(=O)c1nn(CC(=O)N2[C@@H]3C[C@@H]3C[C@H]2C(=O)N[C@@H]2C[C@H]2c2ccccc2)c2ncccc12 [Example 13, 1-{2-Oxo-2-[(1R,3S,5R)-3-((1R,2S)-2-phenyl-cyclopropylcarbamoyl)-2-aza-bicyclo[3.1.0]hex-2-yl]-ethyl}-1H-pyrazolo[3,4-b]pyridine-3-carboxylic acid amide] |  |
| 0.118 | NC(=O)c1nn(CC(=O)N2[C@@H]3C[C@@H]3C[C@H]2C(=O)N[C@@H]2C[C@H]2c2ccccc2)c2ccncc12 [Example 14, 1-{2-Oxo-2-[(1R,3S,5R)-3-((1R,2S)-2-phenyl-cyclopropylcarbamoyl)-2-aza-bicyclo[3.1.0]hex-2-yl]-ethyl}-1H-pyrazolo[4,3-c]pyridine-3-carboxylic acid amide] |  |
| 0.115 | Cc1cc2c(C(N)=O)nn(CC(=O)N3[C@@H]4C[C@@H]4C[C@H]3C(=O)N[C@@H]3C[C@H]3c3ccccc3)c2cn1 [Example 15, 5-Methyl-1-{2-oxo-2-[(1R,3S,5R)-3-((1R,2S)-2-phenyl-cyclopropylcarbamoyl)-2-aza-bicyclo[3.1.0]hex-2-yl]-ethyl}-1H-pyrazolo[3,4-]pyridine-3-carboxylic acid amide] |  |
| 1.24 | NC(=O)c1nn(CC(=O)N2C[C@H](F)C[C@H]2C(=O)N[C@@H]2C[C@H]2c2ccccc2)c2ccncc12 [Example 16, 1-{2-[(2S,4R)-4-Fluoro-2-((1R,2S)-2-phenyl-cyclopropylcarbamoyl)-pyrrolidin-1-yl]-2-oxo-ethyl}-1H-pyrazolo[4,3-c]pyridine-3-carboxylic acid amide] |  |
| 0.117 | NC(=O)c1nn(CC(=O)N2C[C@H](F)C[C@H]2C(=O)N[C@@H]2C[C@H]2c2ccccc2)c2ncccc12 [Example 17, 1-{2-[(2S,4R)-4-Fluoro-2-((1R,2S)-2-phenyl-cyclopropylcarbamoyl)-pyrrolidin-1-yl]-2-oxo-ethyl}-1H-pyrazolo[3,4-b]pyridine-3-carboxylic acid amide] |  |
| 0.031 | CCc1cc2c(C(N)=O)nn(CC(=O)N3[C@@H]4C[C@@H]4C[C@H]3C(=O)N[C@@H]3C[C@H]3c3ccccc3)c2cn1 [Example 19, 5-Ethyl-1-{2-oxo-2-[(1R,3S,5R)-3-((1R,2S)-2-phenyl-cyclopropylcarbamoyl)-2-aza-bicyclo[3.1.0]hex-2-yl]-ethyl}-1H-pyrazolo[3,4-c]pyridine-3-carboxylic acid amide] |  |
| 1.4 | NC(=O)c1nn(CC(=O)N2[C@@H]3C[C@@H]3C[C@H]2C(=O)N[C@H]2C[C@@H]2c2ccccc2Cl)c2cnccc12 [Example 21, 1-(2-{(1R,3S,5R)-3-[(1S,2R)-2-(2-Chloro-phenyl)-cyclopropylcarbamoyl]-2-aza-bicyclo[3.1.0]hex-2-yl}-2-oxo-ethyl)-1H-pyrazolo[3,4-c]pyridine-3-carboxylic acid amide] |  |
| 0.87 | CC(=O)c1nn(CC(=O)N2[C@@H]3C[C@@H]3C[C@H]2C(=O)N[C@]2(C)C[C@H]2c2ccccc2)c2cnccc12 [Example 22, (1R,3S,5R)-2-[2-(3-Acetyl-pyrazolo[3,4-c]pyridin-1-yl)-acetyl]-2-aza-bicyclo[3.1.0] hexane-3-carboxylic acid ((1R,2S)-1-methyl-2-phenyl-cyclopropyl)-amide] |  |
| 13.2 | CC(=O)c1nn(CC(=O)N2[C@@H]3C[C@@H]3C[C@H]2C(=O)N[C@@]2(C)C[C@@H]2c2ccccc2)c2cnccc12 [Example 23, (1R,3S,5R)-2-[2-(3-Acetyl-pyrazolo[3,4-c]pyridin-1-yl)-acetyl]-2-aza-bicyclo[3.1.0] hexane-3-carboxylic acid ((1S,2R)-1-methyl-2-phenyl-cyclopropyl)-amide] |  |

| SMILES | IC50 (read-out: IC50) [µM] | IC50 (IC50 (μM)) [µM] |
| --- | --- | --- |
| NC(=O)c1nn(CC(=O)N2[C@@H]3C[C@@H]3C[C@H]2C(=O)NC2CC2(F)c2ccccc2F)c2ccccc12 (single isomer, unassigned) [Example 50] | 3.88 |  |
| NC(=O)c1nn(CC(=O)N2[C@@H]3C[C@@H]3C[C@H]2C(=O)NC2CC2(F)c2ccccc2F)c2ccccc12 (single isomer, unassigned) [Example 51] | 0.992 |  |
| NC(=O)c1nn(CC(=O)N2[C@@H]3C[C@@H]3C[C@H]2C(=O)NC2CC2(F)c2ccccc2F)c2ccccc12 (single isomer, unassigned) [Example 52] | 0.367 |  |
| NC(=O)c1nn(CC(=O)N2[C@@H]3C[C@@H]3C[C@H]2C(=O)NC2CC2(F)c2ccccc2F)c2ccccc12 (single isomer, unassigned) [Example 53] | 0.036 |  |
| NC(=O)c1nn(CC(=O)N2[C@@H]3C[C@@H]3C[C@H]2C(=O)NC2CC2c2ccc(F)cc2F)c2ccccc12 (single isomer, unassigned) [Example 74] | 3.76 |  |
| NC(=O)c1nn(CC(=O)N2[C@@H]3C[C@@H]3C[C@H]2C(=O)NC2CC2c2ccc(F)cc2F)c2ccccc12 (single isomer, unassigned) [Example 75] | 7.76 |  |
| NC(=O)c1nn(CC(=O)N2[C@@H]3C[C@@H]3C[C@H]2C(=O)NC2CC2c2ccc(F)cc2F)c2ccccc12 (single isomer, unassigned) [Example 76] | 0.036 |  |
| NC(=O)c1nn(CC(=O)N2[C@@H]3C[C@@H]3C[C@H]2C(=O)NC2CC2c2ccc(F)cc2F)c2ccccc12 (single isomer, unassigned) [Example 77] | 0.64 |  |
| CC(=O)c1nn(CC(=O)N2[C@@H]3C[C@@H]3C[C@H]2C(=O)N[C@H]2C[C@@H]2c2ccccc2)c2ccccc12 [Example 1, (1R,3S,5R)-2-[2-(3-Acetyl-indazol-1-yl)-acetyl]-2-aza-bicyclo[3.1.0]hexane-3-carboxylic acid((1S,2R)-2-phenyl-cyclopropyl)-amide] | 0.386 |  |
| CC(=O)c1nn(CC(=O)N2[C@@H]3C[C@@H]3C[C@H]2C(=O)N[C@@H]2C[C@H]2c2ccccc2)c2ccccc12 [Example 2, (1R,3S,5R)-2-[2-(3-Acetyl-indazol-1-yl)-acetyl]-2-aza-bicyclo[3.1.0] hexane-3-carboxylic acid ((1R,2S)-2-phenyl-cyclopropyl)-amide] | 0.029 |  |
| CO[C@H]1[C@@H](C(=O)N[C@@H]2C[C@H]2c2ccccc2)N(C(=O)Cn2nc(C(C)=O)c3ccccc32)C[C@@H]1F [Example 10, (2S,3S,4S)-1-[2-(3-Acetyl-indazol-1-yl)-acetyl]-4-fluoro-3-methoxy-pyrrolidine-2-carboxylic acid ((1R,2S)-2-phenyl-cyclopropyl)-amide] | 0.04 |  |
| NC(=O)c1nn(CC(=O)N2[C@@H]3C[C@@H]3C[C@H]2C(=O)N[C@@H]2C[C@H]2c2ccccc2)c2ccccc12 [Example 12, 1-{2-Oxo-2-[(1R,3S,5R)-3-((1R,2S)-2-phenyl-cyclopropylcarbamoyl)-2-aza-bicyclo[3.1.0]hex-2-yl]-ethyl}-1H-indazole-3-carboxylic acid amide] | 0.06 |  |
| NC(=O)c1nn(CC(=O)N2C[C@H](F)C[C@H]2C(=O)N[C@@H]2C[C@H]2c2ccccc2)c2ccccc12 [Example 18, 1-{2-[(2S,4R)-4-Fluoro-2-((1R,2S)-2-phenyl-cyclopropylcarbamoyl)-pyrrolidin-1-yl]-2-oxo-ethyl}-1H-indazole-3-carboxylic acid amide] | 0.044 |  |
